Our source for the IC50 values is ChEMBL document CHEMBL5030568, “Design and Evaluation of Bispidine-Based SARS-CoV-2 Main Protease Inhibitors” (ACS Med Chem Lett, 2022).

Assay [1] is described as follows: Inhibition of SARS coronavirus 2 3 main viral protease 3-chymotrypsin-like activity expressed in Escherichia coli using Dabcyl-VNSTLQSGLRK(FAM)MA as substrate measured by fluorescence intensity assay. The arrangement: species or system Severe acute respiratory syndrome coronavirus 2.
The next assay relates to HEK-293T. As to the kind of experiment: Cytotoxicity against human HEK293T cells assessed as reduction in cell viability. It is filed as cell-based.

Molecules are shown by their SMILES.

Turning to `CC12CN(CC(=O)O)CC(C)(CN(CC(=O)O)C1)C2=O`, the values for the half-maximal inhibitory concentration (IC50) (in assay [1]; in the assay on HEK-293T) were 7.1 µM and more than 1000 µM, respectively.

In the case of `CC(C)Cc1ccc(C(C)C(=O)O)cc1` (stereo not given) [IBUPROFEN], the IC50 (in general, the midpoint of a concentration-inhibition curve) in assay [1] is more than 500 µM. Turning to `CC12CN(Cc3ccccc3)CC(C)(CN(Cc3ccccc3)C1)C2=O`, the IC50 amounted to 0.9 µM in assay [1] and 359 µM with HEK-293T. In the same order, the values of `CC12CN(C(=O)c3cc(-c4ccccc4)n(-c4ccccc4)n3)CC(C)(CN(C(=O)c3cc(-c4ccccc4)n(-c4ccccc4)n3)C1)C2=O` are 1.4 µM and more than 700 µM. Regarding `CC12CN(CCN(CC(=O)O)CC(=O)O)CC(C)(CN(CCN(C(=O)O)C(=O)O)C1)C2=O`, the IC50 was found to be 33.7 µM in assay [1] and 257 µM in the assay with HEK-293T. Take `C#CC(=O)N1CC2(C)CN(C(=O)C#C)CC(C)(C1)C2=O`: the results for the IC50 (in assay [1]; with HEK-293T) were 5.5 µM and 57.3 µM, respectively. Turning to `C#CCN1CC2(C)CN(CC#C)CC(C)(C1)C2=O`, the results for the IC50 (in assay [1]; in the assay with HEK-293T) were 8.8 µM and more than 1000 µM, respectively. In the case of `C=CC(=O)N1CC2(C)CN(C(=O)C=C)CC(C)(C1)C2`, the IC50 is 99.6 µM in assay [1] and more than 1000 µM in the assay with HEK-293T. Turning to `CC(C)(C)OC(=O)N1CC2(C)CN(C(=O)OC(C)(C)C)CC(C)(C1)C2=O`, the IC50 is 5.9 µM in assay [1] and more than 1000 µM with HEK-293T. As for `CC(C)(C)OC(=O)NCCn1cc(CN2CC3(C)CN(Cc4cn(CCNC(=O)OC(C)(C)C)nn4)CC(C)(C2)C3=O)nn1`, the IC50 in assay [1] amounted to 0.83 µM; in the assay with HEK-293T, 410 µM.

On to `Cn1nc(C(=O)N2CC3(C)CN(C(=O)c4cc(-c5cccs5)n(C)n4)CC(C)(C2)C3=O)cc1-c1cccs1`, for which the IC50 in assay [1] came to 4.99 µM; in the assay on HEK-293T, 456 µM.

Consider `CC12CN(C(=O)c3ccccc3)CC(C)(CN(C(=O)c3ccccc3)C1)C2=O`, for which the IC50 came out at 3.3 µM in assay [1] and 692 µM with HEK-293T. With `CC(=O)N1CC2(C)CN(C(C)=O)CC(C)(C1)C2=O`, the IC50 in assay [1] was 18.5 µM; in the assay with HEK-293T, more than 1000 µM. Consider `CCOC(=O)c1cc(-n2cc(CN3CC4(C)CN(Cc5cn(-c6cc(C(=O)OCC)n[nH]6)nn5)CC(C)(C3)C4=O)nn2)[nH]n1`, for which half-maximal inhibition in assay [1] (IC50) was put at 13.6 µM. With `Cn1nc(C(=O)N2CC3(C)CN(C(=O)c4cc(-c5ccccc5)n(C)n4)CC(C)(C2)C3=O)cc1-c1ccccc1`, the IC50 in assay [1] was 1.45 µM; in the assay with HEK-293T it was more than 900 µM. For `Cc1cc(CN2CC3(C)CN(Cc4cc(C)no4)CC(C)(C2)C3=O)on1` the same measures were 5.2 µM and more than 700 µM. In the case of `CCOC(=O)c1n[nH]cc1-n1cc(CN2CC3(C)CN(Cc4cn(-c5c[nH]nc5C(=O)OCC)nn4)CC(C)(C2)C3=O)nn1`, the results for the 50% inhibitory concentration (IC50) (in assay [1]; with HEK-293T) were 16.3 µM and more than 700 µM, respectively. With `Cn1nc(C(=O)N2CC3(C)CN(C(=O)c4nn(C)c5c4CCc4ccccc4-5)CC(C)(C2)C3=O)c2c1-c1ccccc1CC2`, the IC50 is 0.75 µM in assay [1] and more than 800 µM in the assay with HEK-293T.

For the compound `CC(C)(C)OC(=O)Cn1cc(CN2CC3(C)CN(Cc4cn(CC(=O)OC(C)(C)C)nn4)CC(C)(C2)C3=O)nn1`, the IC50 in assay [1] is 2.02 µM; in the assay on HEK-293T, 465 µM. As for `CC12CNCC(C)(CNC1)C2=O`, the IC50 in assay [1] is 2.6 µM; in the assay on HEK-293T, more than 1000 µM. For `CC12CN(C(=O)OC(C)(C)C)CC(C)(CN(C(=O)OC(C)(C)C)C1)C2`, the IC50 was 17.9 µM in assay [1] and 302 µM in the assay with HEK-293T. With `CC12CN(CC#N)CC(C)(CN(CC#N)C1)C2=O`, the IC50 is 5.5 µM in assay [1] and more than 700 µM with HEK-293T. `CC12CN(Cc3cn(Cc4ccccc4)nn3)CC(C)(CN(Cc3cn(Cc4ccccc4)nn3)C1)C2=O`: the IC50 in assay [1] was 2.2 µM; in the assay on HEK-293T, 560 µM.

For `CC12CN(C(=O)/C=C/c3ccccc3)CC(C)(CN(C(=O)/C=C/c3ccccc3)C1)C2=O`, the IC50 is 4.8 µM in assay [1] and more than 1000 µM in the assay with HEK-293T. In the same order, the values of `CC12CN(C(=O)/C=C/c3ccccc3)CC(C)(CN(C(=O)/C=C/c3ccccc3)C1)C2` are 46.6 µM and 253 µM. On to `Cn1nc(C(=O)N2CC3(C)CN(C(=O)c4nn(C)c5c4Cc4ccccc4-5)CC(C)(C2)C3=O)c2c1-c1ccccc1C2`, for which the values for the IC50 (in assay [1]; in the assay with HEK-293T) were 13 µM and more than 800 µM, respectively.
